Data reported in the supplement of paper PMC8253809.

Tests used:
[1] = system: DIPGX29 (H3.3 K27M diffuse intrinsic pontine glioma line); assay: EC50 (inflection of fitted growth-inhibition curve) (log10 M)
How it was run: (§1)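 Patient-derived pHGG/DIPG cell lines and astrocyte controls were grown on 1% Geltrex-coated 384-well plates and exposed by pin tool to a 10-point threefold dilution series (mean top concentration 35 μM), in triplicate. Exposure was 7 days (iAstro 3 days) at 37 °C, 5% CO2. CellTiter-Glo luminescence was log2-transformed, normalised per plate to % activity between negative (solvent) and positive control wells, and pooled. EC50 and maximal response (yFin) come from the lowest-AICc three- or four-parameter log-logistic fit.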

[2] = system: HGGX6 (H3.3 G34R paediatric high-grade glioma line); assay: as above
How it was run: as §1

[3] = system: DIPGX37 (H3.3 K27M diffuse intrinsic pontine glioma line); assay: as above
How it was run: as §1

[4] = system: HGGX39 (paediatric high-grade glioma line); assay: as above
How it was run: as §1

[5] = system: DIPGX29; assay: area under dose-response curve of % growth inhibition (log2 RLU vs DMSO / staurosporine), 1e-11 to 1e-4 M (% x log10 M); higher = more growth inhibition
How it was run: (§2)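 On 1% Geltrex-coated 384-well plates, patient-derived pHGG/DIPG cell lines and astrocytes were treated in triplicate across 10 threefold dilutions (mean top concentration 35 μM) for 7 days, with iAstro treated for 3 days, at 37 °C, 5% CO2. Log2-transformed CellTiter-Glo luminescence was normalised per plate to % activity between solvent and positive controls. Area under the curve was obtained by the trapezoid rule from a log-logistic fit, or from a smoothing spline when that fit failed.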

[6] = system: HGGX6; assay: as above
How it was run: as §2

[7] = system: DIPGX37; assay: as above
How it was run: as §2

[8] = system: HGGX39; assay: as above
How it was run: as §2

[9] = system: DIPGX29; assay: maximal growth inhibition (yFin) relative to DMSO / staurosporine; higher = more efficacious
How it was run: as §1

[10] = system: HGGX6; assay: as above
How it was run: as §1

[11] = system: DIPGX37; assay: as above
How it was run: as §1

[12] = system: HGGX39; assay: as above
How it was run: as §1

SMILES | EC50 (log10 M) [1] | EC50 (log10 M) [2] | EC50 (log10 M) [3] | EC50 (log10 M) [4] | area under dose-response curve [5] | area under dose-response curve [6] | area under dose-response curve [7] | area under dose-response curve [8] | maximal growth inhibition [9] | maximal growth inhibition [10] | maximal growth inhibition [11] | maximal growth inhibition [12]
COc1ccccc1-c1cc(Nc2cccc(CS(N)(=O)=O)c2)ncn1 | -4.82 | -4.83 | -4.68 | -4.84 | 58.4 | 54.4 | 39.8 | 40.5 | 71.9% | 65.7% | 59.7% | 48.3%
Cc1nc(Nc2n[nH]c3c2CN(C(=O)N[C@H](CN(C)C)c2ccccc2)C3(C)C)c2sccc2n1 | -5.45 | -5.66 | -5.56 | -5.22 | 150 | 174 | 177 | 120 | 77.2% | 75.5% | 80.1% | 79.6%
O=C1NCCc2[nH]c(-c3ccncc3)cc21 | -5.62 | -5.81 | -5.9 | -5.41 | 110 | 124 | 111 | 98.2 | 67.8% | 65.9% | 58.9% | 71.2%
COc1cc2c(cc1O)CC[C@@H]1[C@@H]2CC[C@]2(C)[C@@H](O)CC[C@@H]12 [2-METHOXYESTRADIOL] | -5.23 | -5.65 | -4.96 | -4.89 | 40.9 | 38.9 | 48.8 | 47.3 | 22.8% | 23.6% | 36.4% | 53%
Nc1c2ccccc2nc2ccccc12 [9-AMINOACRIDINE] | -4.84 | -4.82 | -4.83 | -4.83 | 59.1 | 65.1 | 70.3 | 74 | 71% | 80.2% | 85.8% | 89.5%
CC[C@@]1(O)C[C@H](O[C@H]2C[C@H](N(C)C)[C@H](O[C@H]3C[C@H](O)[C@H](O[C@H]4CCC(=O)[C@H](C)O4)[C@H](C)O3)[C@H](C)O2)c2c(cc3c(c2O)C(=O)c2c(O)cccc2C3=O)[C@H]1C(=O)OC [ACLARUBICIN] | -5.38 | -5.33 | -6.79 | -5.35 | 96.6 | 111 | 173 | 118 | 58.7% | 62.1% | 62.1% | 65.6%
CCCCC(CC)CNC(=N)NC(=N)NCCCCCCNC(=N)NC(=N)NCC(CC)CCCC (stereo not given) [ALEXIDINE] | -6.06 | -5.48 | -5.67 | -5.64 | 130 | 105 | 126 | 126 | 63.3% | 73.3% | 78.2% | 80.3%
CCCCc1oc2ccccc2c1C(=O)c1cc(I)c(OCCN(CC)CC)c(I)c1 [AMIODARONE] | -4.79 | -4.8 | -4.76 | -4.83 | 63.6 | 63 | 63.2 | 74.6 | 80% | 78.8% | 83% | 89.3%
CCOC(=O)C1=C(COCCN)NC(C)=C(C(=O)OC)C1c1ccccc1Cl (stereo not given) [AMLODIPINE] | -4.86 | -4.75 | -4.82 | -4.83 | 69.2 | 64.5 | 72.4 | 75.8 | 80.4% | 85.6% | 88% | 91.4%
CCC(C)(C)c1ccc(CC(C)CN2C[C@@H](C)O[C@@H](C)C2)cc1 (stereo not given in full) [AMOROLFINE] | -5.09 | -5.36 | -5.29 | -5.11 | 47.6 | 58.4 | 62.1 | 103 | 33.2% | 41.6% | 48% | 72.1%
C[C@@H](O[C@H]1OCCN(Cc2n[nH]c(=O)[nH]2)[C@H]1c1ccc(F)cc1)c1cc(C(F)(F)F)cc(C(F)(F)F)c1 [APREPITANT] | -4.8 | -4.81 | -4.81 | -4.81 | 76.6 | 58.5 | 66.2 | 64.5 | 85.5% | 72.7% | 81.7% | 80%
CC[C@H](CC#N)OC(=O)N[C@@H](C)c1cccc(NC(=O)Nc2ccc(-c3cnco3)c(OC)c2)c1 [AVN-944] | -6.32 | -5.95 | -6.4 | -5.67 | 79.5 | 48 | 84.4 | 54.3 | 34.3% | 27.9% | 35.2% | 39.3%
O=C1COc2c(CCNCCN(C(=O)CCNCCc3ccc(Cl)c(Cl)c3)C3CCCCC3)ccc(O)c2N1 [AZ505] | -4.86 | -4.83 | -4.56 | -4.82 | 70.9 | 61.6 | 33.8 | 49.1 | 82.3% | 74.2% | 60.3% | 61.1%
COc1cc(OC2CCN(C)CC2)ccc1Nc1ncc2c(n1)n(C1CCCC1)c(=O)n2C [AZ3146] | -4.86 | -4.82 | -4.79 | -4.85 | 92.5 | 86.9 | 86.8 | 88.5 | 103% | 96.5% | 110% | 105%
Nc1nc2n[nH]nc2c(=O)[nH]1 [AZAGUANINE-8] | -5.14 | -5.25 | -5.07 | -5.31 | 45 | 31.2 | 58.7 | 74.2 | 38.3% | 25.9% | 53.8% | 54.2%
CC1=C(C(=O)OC(C)C)C(c2cccc([N+](=O)[O-])c2)C(C(=O)OC2CN(C(c3ccccc3)c3ccccc3)C2)=C(N)N1 (stereo not given) [AZELNIDIPINE] | -4.91 | -4.89 | -4.91 | -4.94 | 74.8 | 80.8 | 83.2 | 93.9 | 81.9% | 91.3% | 86.1% | 99.9%
Cc1c(-c2ccc(O)cc2)n(Cc2ccc(OCCN3CCCCCC3)cc2)c2ccc(O)cc12 [BAZEDOXIFENE] | -4.97 | -4.93 | -4.91 | -5 | 76.7 | 70.5 | 75.4 | 87.8 | 79.1% | 75.9% | 83.5% | 87.3%
CN(C)CCCOc1nn(Cc2ccccc2)c2ccccc12 [BENZYDAMINE] | -5.29 | -5.19 | -5.21 | -5.5 | 61.8 | 63.8 | 105 | 123 | 47.7% | 53.3% | 85.5% | 81.4%
Cc1nnc(C[C@@H]2C=C(c3ccc(Cl)cc3)c3ccccc3-n3c(C)nnc32)o1 [BET-BAY 002] | -5.5 | -5.39 | -6.21 | -5.19 | 29.9 | 35.1 | 58.2 | 42.3 | 21.8% | 27% | 26.3% | 39.7%
CCN1CCN(c2cc(-c3ccc(F)cc3)c3c(n2)CCCCCC3)CC1 [BLONANSERIN] | -5.17 | -4.81 | -4.93 | -4.94 | 63.1 | 64.4 | 73.5 | 81.4 | 53.1% | 79.5% | 77.4% | 85.3%
COc1cc(Nc2c(C#N)cnc3cc(OCCCN4CCN(C)CC4)c(OC)cc23)c(Cl)cc1Cl [BOSUTINIB] | -4.78 | -4.75 | -4.76 | -4.74 | 75.5 | 74.3 | 80.4 | 71.8 | 74.1% | 75.7% | 71.8% | 79.3%
CCOC(=O)Nc1cc(-c2ccc(C)c(NS(C)(=O)=O)c2)nn2c(C)nnc12 [BROMOSPORINE] | -5.25 | -5.51 | -5.23 | -5.01 | 32.2 | 33 | 66.5 | 43.6 | 25.2% | 21.4% | 53.4% | 42.7%
CCCCOc1ccc(CC(=O)NO)cc1 [BUFEXAMAC] | -4.28 | -4.33 | -4.2 | -4.28 | 15.7 | 25.5 | 15.4 | 27.2 | 57.1% | 79.2% | 76.7% | 95.6%
Nc1cc(C(F)(F)F)c(-c2cc(N3CCOCC3)nc(N3CCOCC3)n2)cn1 [BUPARLISIB] | -5.14 | -6.21 | -5.55 | -5.56 | 81.3 | 43.9 | 95.5 | 58.2 | 67.8% | 21.8% | 59.3% | 41.2%
Clc1ccc(CCC(Cn2ccnc2)Sc2c(Cl)cccc2Cl)cc1 (stereo not given) [BUTOCONAZOLE] | -4.86 | -4.79 | -4.84 | -4.87 | 59.7 | 37.8 | 69.4 | 80.5 | 57% | 47.6% | 70.3% | 85.9%
CC[C@H](C)n1cc(C)c2c(C(=O)NCc3c(C)cc(C)[nH]c3=O)cc(-c3ccc(N4CCNCC4)nc3)cc21 [GSK126] | -4.87 | -4.83 | -4.88 | – | 66.1 | 61.2 | 74.3 | 13.1 | 76.4% | 74.4% | 76.7% | –
CC(C)NC[C@@H](C(=O)N1CCN(c2ncnc3c2[C@H](C)C[C@H]3O)CC1)c1ccc(Cl)cc1 [IPATASERTIB] | -5.18 | -5.67 | -5.27 | – | 64.7 | 49 | 25.8 | 11.9 | 50.3% | 31.8% | 21.5% | –
Clc1ccc(NN=C(c2ccccc2)c2ccccn2)nc1 [JIB-04] | -5.13 | -5.07 | – | -5.02 | 63.6 | 61.4 | 25.7 | 34.4 | 47.2% | 50.7% | – | 34.3%
O=C(O)C[C@H](O)C[C@H](O)/C=C/c1c(C2CC2)nc2ccccc2c1-c1ccc(F)cc1 [PITAVASTATIN] | -5.04 | -5.36 | – | -6.26 | 75.6 | 95.1 | 121 | 215 | 49.2% | 66.4% | – | 92.9%
